Measured values reported in patent US20100331348A1, “TROPANE DERIVATIVES USEFUL AS PESTICIDES” (SYNGENTA CROP PROTECTION, INC., priority 2007, published 2010).
Where two headings read alike, the source gives them in different places.

Experiments:
Aedes aegypti = Aedes aegypti (Yellow fever mosquito) larvae test; format: in vivo; details: 48 h
[1] = tested on: Erysiphe graminis f.sp. tritici; test: Erysiphe graminis f.sp. tritici (wheat powdery mildew) leaf disk assay; format: in vivo; details: Blumeria graminis, foliar, 96 h, preventive, four days after inoculation, read-out: control of fungal infection, Erysiphe graminis fsp. tritici
[2] = tested on: Puccinia recondita f.sp. tritici; test: Puccinia recondita f.sp. tritici (wheat brown rust) leaf disk assay; format: in vivo; details: foliar, 216 h, preventive, nine days after inoculation, read-out: control of fungal infection, Puccinia recondita f.sp. tritici
Pyricularia oryzae = test: whole plant or invertebrate; format: in vivo; details: foliar, 96 h
Phytophthora infestans = test: whole plant or invertebrate; format: in vivo; details: foliar, 96 h, read-out: control of fungal infection, Phytophthora infestans
Plasmopara viticola = Plasmopara viticola (downy mildew of grapevine) leaf disk assay; format: in vivo; details: foliar, 168 h, preventive, seven days after inoculation, read-out: control of fungal infection, Plasmopara viticola
Tetranychus urticae = details: foliar, 192 h, read-out: control of Tetranychus urticae
Plutella xylostella = Plutella xylostella (Diamond back moth) artificial diet test; details: 120 h, read-out: control of Plutella xylostella
Heliothis virescens = Heliothis virescens (Tobacco budworm) egg test on artificial diet; details: 96 h, read-out: control of Heliothis virescens
Pythium ultimum = Pythium ultimum (Damping off) growth inhibition in potato dextrose broth; format: cell-based; details: Globisporangium ultimum, 48 hours, read-out: control of fungal infection, Pythium ultimum
[3] = read-out: control of fungal infection, Pyricularia oryzae (at least 80% list)
[4] = read-out: control of fungal infection, Pyricularia oryzae (at least 60% list)

SMILES | pest or weed control at 2 ppm (Aedes aegypti) | pest or weed control at 200 ppm [1] | pest or weed control at 200 ppm [2] | pest or weed control at 200 ppm (Pyricularia oryzae; [3]) | pest or weed control at 200 ppm (Phytophthora infestans) | pest or weed control at 200 ppm (Plasmopara viticola) | pest or weed control at 200 ppm (Tetranychus urticae) | pest or weed control at 200 ppm (Plutella xylostella) | pest or weed control at 200 ppm (Heliothis virescens) | pest or weed control at 200 ppm (Pyricularia oryzae; [4]) | inhibition of growth at 200 ppm (Pythium ultimum)
CCc1ccc(CON=C2CC3CCC(C2)N3c2ncnc3sccc23)cc1 [Example 5.151] | ≥ 80% | ≥ 80% | ≥ 80% | ≥ 80% | ≥ 80% | ≥ 80% | ≥ 80% | – | – | – | –
CCc1ncnc(N2C3CCC2CC(=NOCc2cc(F)c(F)cc2F)C3)c1Cl [Example 5.87] | ≥ 80% | ≥ 80% | ≥ 80% | – | – | – | – | ≥ 80% | ≥ 80% | – | –
CCC(=O)c1ccc(OC2C[C@H]3CC[C@@H](C2)N3c2ncnc(CC)c2Cl)cc1 (stereo partly drawn) [Example 2.166] | ≥ 80% | – | ≥ 80% | – | ≥ 80% | – | ≥ 80% | – | ≥ 80% | – | –
CCc1ncnc(N2C3CCC2CC(Cc2ccc(C)cc2)C3)c1Cl (stereo not drawn) [Example 7.26] | ≥ 80% | – | – | – | – | – | – | ≥ 80% | ≥ 80% | – | –
Cc1ccc(CC2CC3CCC(C2)N3c2ncnc3sccc23)cc1 (stereo not drawn) [Example 7.8] | ≥ 80% | – | ≥ 80% | ≥ 80% | – | ≥ 80% | – | ≥ 80% | ≥ 80% | ≥ 60% | –
CCCCC1COC2(CC3CCC(C2)N3c2ncnc3sccc23)O1 (stereo not drawn) [Example 6.3] | ≥ 80% | ≥ 80% | – | – | ≥ 80% | ≥ 80% | – | ≥ 80% | ≥ 80% | – | –
CCc1ncnc(N2C3CCC2CC(=CCOc2cccc(F)c2)C3)c1Cl [Example 3.12] | ≥ 80% | – | ≥ 80% | ≥ 80% | – | – | – | ≥ 80% | ≥ 80% | – | –
COc1ccc(CC2CC3CCC(C2)N3c2ncnc3sccc23)cc1 (stereo not drawn) [Example 7.11] | ≥ 80% | – | ≥ 80% | – | – | ≥ 80% | ≥ 80% | – | ≥ 80% | ≥ 60% | –
Cc1ccc(OCC=C2CC3CCC(C2)N3c2ncnc3sccc23)cc1 [Example 3.30] | ≥ 80% | – | ≥ 80% | ≥ 80% | ≥ 80% | ≥ 80% | – | – | ≥ 80% | – | –
CCCC1COC2(CC3CCC(C2)N3c2ncnc3sccc23)O1 (stereo not drawn) [Example 6.10] | ≥ 80% | ≥ 80% | ≥ 80% | ≥ 80% | – | ≥ 80% | ≥ 80% | ≥ 80% | – | – | –
CCc1ncnc(N2C3CCC2CC(=NOCc2cc(F)ccc2F)C3)c1Cl [Example 5.73] | ≥ 80% | ≥ 80% | ≥ 80% | – | – | – | – | ≥ 80% | ≥ 80% | ≥ 60% | –
CCc1ncnc(N2C3CCC2CC(=NOCc2ccc(OC)cc2)C3)c1Cl [Example 5.16] | ≥ 80% | ≥ 80% | ≥ 80% | – | – | ≥ 80% | ≥ 80% | ≥ 80% | ≥ 80% | – | –
Fc1cc(Cl)cnc1OC1C[C@H]2CC[C@@H](C1)N2c1ncnc2sccc12 (stereo partly drawn) [Example 1.72] | – | ≥ 80% | ≥ 80% | ≥ 80% | – | – | – | – | ≥ 80% | ≥ 60% | –
CCC(=O)c1cc(F)c(OC2C[C@H]3CC[C@@H](C2)N3c2ncnc3sccc23)c(F)c1 (stereo partly drawn) [Example 2.66] | ≥ 80% | ≥ 80% | – | – | ≥ 80% | ≥ 80% | ≥ 80% | ≥ 80% | – | – | –
FC(F)(F)c1ccc(OC2C[C@H]3CC[C@@H](C2)N3c2ncnc3ccsc23)nc1 (stereo partly drawn) [Example 2.77] | – | ≥ 80% | ≥ 80% | – | – | – | – | – | – | ≥ 60% | ≥ 60%
FC(F)(F)c1ccc(CON=C2CC3CCC(C2)N3c2ncnc3sccc23)cc1 [Example 5.160] | ≥ 80% | ≥ 80% | ≥ 80% | ≥ 80% | ≥ 80% | ≥ 80% | ≥ 80% | ≥ 80% | – | – | –
